The results in this text go back to ChEMBL document CHEMBL1122789, “Synthesis and biological activity of structural analogues of the anticancer benzophenanthridine alkaloid nitidine chloride” (1984).

Activity calls are given as the source filed them. No cut-off for these calls is given here.

Test [1] deals with P388. Description: Evaluated for anticancer activity against P388 lymphocytic leukemia system at a dose of 200 mg/Kg; Inactive. To be noted: Mus musculus. In kind it is functional.
The next test relates to KB. The experiment in a line: Evaluated in vitro for cytotoxicity against KB cell culture system. Format: functional. To be noted: Homo sapiens, read-out: ED50 (the source's name).
The subject of test [2] is P388. Description: Evaluated for percentage test/control (%T/C) in survival tumor system against P388 lymphocytic leukemia. In kind it is functional, Mus musculus.
The test system of another test is L1210. Description: Evaluated for percentage test/control (%T/C) in survival tumor system against L1210 lymphoid leukemia. In kind it is functional, Mus musculus.
The test system of another test is B16. The experiment in a line: Evaluated for percentage test/control (%T/C) in survival tumor system against B16 melanocarcinoma at dose 20 mg/Kg. In kind it is functional, Mus musculus.

Take `COc1cc2cc(-c3ccc4c(c3)OCO4)[n+](C)cc2cc1OC.[Cl-]`: the Anticancer activity entry in the test with P388 [1] is “inactive”. Moreover, the EC50 with KB came to 5 ng/mL.

As for `COc1cc2c(ccc3c4cc(OC)c(OC)cc4c[n+](C)c23)cc1O.[Cl-]` [FAGARONINE], the T/C in the test with P388 [2] is 265%.

Consider `COc1cc2c[n+](C)c3c4cc5c(cc4ccc3c2cc1OC)OCO5.[Cl-]` [NITIDINE CHLORIDE], for which the T/C in the test with L1210 is recorded as 136%; in the test with P388 [2], 209%; in the test on B16, 141%.
